The target of one assay is T1, SHV-11 (Klebsiella pneumoniae, UniProt P0AD64).
T1 construct: DNA TEM (870 bp) or SHV (894 bp) were each sub-cloned into a PUC57 vector cloning site NdeI/XhoI; His-tag (N); TEV cleavage site (N); made in house; host or cells: E. coli BL21 (DE3)
The assay can be described thus: thermal denaturation with light scattering (aggregation) in presence of excess tazobactam. The settings on record: SHV-11, excess of tazobactam. Format: biochemical.

The subject of the next assay is E. coli strain UZ_TEM104. Format: cell-based. To be noted: additive at fixed 50 μg/mL.
Assay [1] concerns TEM variants (TEM15, TEM30, TEM52, TEM10, TEM155). The assay can be described thus: aggregation (RALS temperature ramp) of recombinant TEM variants in presence and absence of tazobactam. The format is biochemical. The settings on record: presence versus absence of tazobactam. From the text:
FIGS. 2A-2M. (FIG. 2A) TEM mutations and their effects on stability (total energy) as predicted by FoldX. […] Dashed line indicates a total energy difference of 0.5 kcal/mol, the FoldX cut-off above which mutations are considered to be destabilizing. (FIG. 2B) Barplot mapping mutations in (FIG. 2A) to the TEM sequence and indicating occurrence. […] The bar heights correspond to the number of times a mutation occurs across different TEM variants (right-hand y-axis). The color coding is identical to that in (FIG. 2A). Red line indicates the TANGO scores (indicated on the left-hand y-axis), with peaks corresponding to APRs. (FIG. 2C) Mapping of mutations in (FIG. 2A) and (FIG. 2B) to the TEM structure (pdb 1xpb). Protein surface is shown in gray, color coding of mutations is identical to (FIG. 2A) and (FIG. 2B). (FIGS. 2D, 2E, and 2F) Temperature-dependent evolution of the Right-Angle Light Scattering (RALS) intensity during a temperature ramp, similar as in FIG. 1F for key mutants of TEM1, namely TEM-10 (FIG. 2D), TEM-30 (FIG. 2E) and TEM-155 (FIG. 2F). Experiments were shown in triplicate, single repeat is shown. (FIG. 2G) Schematic representation of the structure of the peptides. APR—Aggregation Prone Region, R—Arginine. (FIG. 2H) Ribbon representation of the superposition of the crystal structures of TEM (green, pdb id 1bt5) and SHV (blue, pdb id 1shv). […]

Assay [2] relates to uro-pathogenic E. coli strain (UPEC strain blaTEM-1). The assay can be described thus: mouse Urinary Tract Infection (UTI) model. The format is in vivo. The settings on record: 30 mg/kg ampicillin plus 10 mg/kg test substance; 24 h. Here is the method:
FIGS. 4A-4K. […] IV—Intravenous, IP—Intraperitoneal, SC—Subcutaneously. The data shown is from a single experiment with 4 animals per group. […] (ns—non significant, #—P>0.05, *—P≤0.05, ***—P≤0.01, ****—P≤0.001). (FIG. 4G) FICI plot as in FIG. 2, for the E. coli strains indicated and the combination of penicillin and the TEM3.2 peptide. […] (FIG. 4J) Same as FIG. 4H for peptide BGAL. (FIG. 4K) Same as FIG. 4H for peptide P33.
Vehicle alone (0.9% NaCl) was also administered (IV).
To test the efficacy of the peptides, urinary tract infection model was performed as described previously^65. Briefly, female C57BL/6Jax mice female mice were deprived from water for at least one hour. […] Mice were slowly inoculated urethrally with 50 μL of a bacterial suspension slowly (10^8 CFU/mouse) using a sterile catheter (The plastic intravenous cannula of the paediatric intravenous-access cannula (GS391350) in the bladder over 5 s in order to avoid vesicoureteral reflux. The catheter was then removed directly after inoculation. After surgery, the animals were visually monitored for full recovery. After 1 h post-inoculation, all mice received ampicillin (30 mg/kg_PO-orally) and at the same time 3 groups of animals received the peptides via different administration routes (10mg/kg_IV—Intravenous; IP—Intraperitoneal or SC—sub-cutaneous) and the positive control groups received tazobactam (10 mg/Kg, PO). […]

The next assay concerns the target T2, TEM-1 (Escherichia coli, UniProt P62593).
T2 construct: DNA TEM (870 bp) or SHV (894 bp) were each sub-cloned into a PUC57 vector cloning site NdeI/XhoI; His-tag (N); TEV cleavage site (N); made in house; host or cells: E. coli BL21 (DE3)
The assay can be described thus: thermal denaturation with right-angle/static light scattering (aggregation) in presence of beta-lactamase inhibitors. Format: biochemical, E. coli.

T2 sequence (P62593 24-286 limits assumed): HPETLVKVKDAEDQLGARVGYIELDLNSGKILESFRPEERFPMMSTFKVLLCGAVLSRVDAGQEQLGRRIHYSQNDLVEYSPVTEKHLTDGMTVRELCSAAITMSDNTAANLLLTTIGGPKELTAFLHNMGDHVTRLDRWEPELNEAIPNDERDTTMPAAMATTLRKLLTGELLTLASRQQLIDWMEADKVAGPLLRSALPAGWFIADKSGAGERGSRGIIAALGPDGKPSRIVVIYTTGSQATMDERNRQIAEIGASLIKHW
T1 sequence (P0AD64 22-286 L31Q): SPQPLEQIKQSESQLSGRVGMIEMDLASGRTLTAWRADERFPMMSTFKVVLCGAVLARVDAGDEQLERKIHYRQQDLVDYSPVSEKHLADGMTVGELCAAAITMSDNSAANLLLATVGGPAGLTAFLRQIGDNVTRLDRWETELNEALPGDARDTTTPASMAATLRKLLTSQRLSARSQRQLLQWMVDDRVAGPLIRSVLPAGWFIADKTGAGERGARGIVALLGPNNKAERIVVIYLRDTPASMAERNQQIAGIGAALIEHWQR

Take `C[C@]1(Cn2ccnn2)[C@H](C(=O)O)N2C(=O)C[C@H]2S1(=O)=O` [tazobactam]: the “aggregation onset temperature Tagg” value is on record as “increase” at SHV-11 and “increase” on TEM-1 (TEM-1, excess of tazobactam, more marked than for SHV-11). Further, the “reduction of the MIC of penicillin G” value with E. coli strain UZ_TEM104 worked out at 4 fold. For the same compound, the “effect of tazobactam on aggregation of TEM variants” value in assay [1] is reported as “pharmacological chaperone effect”. Also, the “best reduction of the bacterial load (up to)” value in assay [2] worked out at 1.8 log folds. In addition, at TEM-1 (TEM-1, dose titration of inhibitor), the “aggregation of the enzyme (static light scattering), dose-response” value is recorded as “reduce the aggregation of the enzyme in a dose-responsive manner”.

The values are drawn from patent publication US20240165196A1, “Beta-Lactamase Inhibitors” (VIB VZW, priority 2021, published 2024).
